Where “and” joins values, the source holds several entries; their conditions need not be identical. Identical values can stand only once. Entries after “also recorded” stand apart in the source; their conditions may differ.
Key:
[1] = tested on: cancers; conditions: cited from earlier work
[2] = clinical; conditions: human, in vivo
Protocol: (§1) Gossypol acetic acid, 10 mg compressed tablet, was given orally at a dose of 20 mg/d which was increased by 10 mg/d every three days to a dose of 50 mg/d.

[3] = tested on: SW-13 human adrenocortical carcinoma; assay: Gossypol in SW-13 tumor bearing nude mice (preexisting tumors); format: in vivo; conditions: for Mean tumor size (mean ± SE): length×width; for Total deaths / Prevalence of tumor: preexisting tumors
Protocol: Nude mice (Charles River, Kingston, N.Y.) weighing 20-35 g were caged in a temperature-controlled (26-28° C.), 12 h/12 h light/dark animal room. A microporous cage bonnet served as an effective protective barrier between the animal and the outside environment. In addition, the room was continuously purged with […]. The cages, feeders, and water bottles were designed to make standard mouse chow and water readily available while minimizing the opportunity for the transfer of communicable pathogens.
Another experiment was designed wherein 48 adult male nude mice weighing 25-35 g were injected s.c. with 2×10^6 SW-13 cells. One month later, the animals were divided into two groups of 24. There were 7 nude mice without visible tumors in each group. The gossypol treated animals received 30 mg gossypol acetic acid/kg body weight/day whereas control animals were fed an equal volume of carrier. Body weigths and tumor sizes (lengths×width, cm^2) were measured weekly. During the 12th week of treatment, 5 control animals died. Since it appeared unlikely that the remaining control animals would survive for another week, they were then sacrificed. Autopsies were performed on all animals including those that died during the study period. Internal organs were examined for the presence of gross tumor.
Data are expressed as the mean±SD unless otherwise indicated. Statistical comparisons were made using an unpaired Student's t test.
In this experiment, nude mice had been given s.c. injections of SW-13 adrenocortical carcinoma 1 month prior to initiation of the treatment with either gossypol or carrier.

[4] = tested on: metastatic adrenocortical carcinoma; assay: Phase 1 clinical trial of oral gossypol for adrenocortical cancer
Protocol: as §1

[5] = tested on: SW-13 cells; assay: In vitro gossypol treatment: SW-13 cell proliferation; format: cell-based, human; conditions: 5 and 50 uM gossypol, prolonged exposure (1-6 days)
Protocol: SW-13 cells were seeded (1×10^4 cells) into 25 cm^2 tissue culture flasks in Dulbecco's minimal Eagle's medium supplemented with fetal calf serum (10%), 100 ug/ml streptomycin, 100 units/ml penicillin, and 2 mM glutamine.
Sw-13 cells were seeded in a 25-cm^2 tissue culture flask (Costar, Cambridge, Mass.) at densities of 1×10^4 cells/5 ml of Dulbecco's minimal Eagle's medium, supplemented with 10% fetal calf serum, 100 ug/ml streptomycin, 100 units/ml penicillin, and 2 mM glutamine. The cells were grown in a humidified, 37° C. incubator with a 5% CO2/95% air atmosphere. A gossypol stock solution in absolute ethanol was added to the culture medium to yield final concentrations of 0, 0.5, 5, and 50 uM gossypol with a 0.1% final ethanol concentration. After 1, 2, 4, or 6 days of incubation, the culture medium containing a few floating cells was removed. Adherent cells were typsinized (0.1% trypsin, w/v) and counted using a hemocytometer. Cell viability was determined by trypan blue exclusion.

[6] = mouse; Rao et al. (1985); cited from earlier work
[7] = tested on: adrenocortical carcinoma; assay: Previous therapy of the patient with adrenocortical carcinoma; format: in vivo, human; conditions: person, hepatic metastases, before gossypol
[8] = patient 26, lung, liver, dose 70, 3 weeks
[9] = patient 27, abdomen, pelvis, dose 50, 6 weeks
[10] = patient 34, abdomen, liver, dose 40-50, 12 weeks
[11] = patient 52, abdomen, dose 40, 6 weeks
[12] = person, after three weeks, gossypol acetic acid tablets 20 to 50 mg/d oral

Q: Which results are given for Cc1cc2c(C(C)C)c(O)c(O)c(C=O)c2c(O)c1-c1c(C)cc2c(C(C)C)c(O)c(O)c(C=O)c2c1O [Gossypol, gossypol]?
A: anti-tumor effective dose in animals [1]: ~10 mg/kg/day; concentration at 6 weeks ([2]; female, oral, 40 mg/d): 4.44 ng/mL; concentration at 3 weeks ([2]; male): 10.2 ng/mL; concentration at 12 weeks ([2]; male, oral): 2.91 ng/mL; concentration at 6 weeks ([2]; male, oral, 50 mg/d): 2.29 ng/mL; total tumor burden (cumulative surface area), control relative to gossypol group ([3]; 12th week, FIG. 2): twice; effect on body weights ([3]; 12 weeks of gossypol treatment): no significant effect; body weight at the end of the study period (mean ± SD) ([3]; after 12 weeks, 30 mg/kg/day oral): 30.9 ± 3.6 g; number of deaths in the gossypol-treated group ([3]; during 12 weeks of treatment, group of 24, 10 deaths in control group): two; Mean tumor size (mean ± SE) ([3]; week 0, 30 mg/kg/day oral): 0.08 ± 0.02 cm^2; Total deaths ([3]; week 0, 30 mg/kg/day oral): 0%; Prevalence of tumor ([3]; week 0, 30 mg/kg/day oral, 30 mg/kg/day): 72%; Prevalence of tumor ([3]; week 0, 30 mg/kg/day oral, listed as gossypol, 30 mg/kg/day): 71%; Mean tumor size (mean ± SE) ([3]; week 1, 30 mg/kg/day oral): 0.07 ± 0.02 cm^2; Prevalence of tumor ([3]; week 1, 30 mg/kg/day oral): 63%; Total deaths ([3]; week 1, 30 mg/kg/day oral): 0%; Mean tumor size (mean ± SE) ([3]; week 2, 30 mg/kg/day oral): 0.12 ± 0.04^a cm^2; Prevalence of tumor ([3]; week 2, 30 mg/kg/day oral): 50%; Total deaths ([3]; week 2, 30 mg/kg/day oral): 0%; Mean tumor size (mean ± SE) ([3]; week 3, 30 mg/kg/day oral): 0.15 ± 0.05^a cm^2; Prevalence of tumor ([3]; week 3, 30 mg/kg/day oral): 54%; Total deaths ([3]; week 3, 30 mg/kg/day oral): 0%; Mean tumor size (mean ± SE) ([3]; week 4, 30 mg/kg/day oral): 0.20 ± 0.07^a cm^2; Prevalence of tumor ([3]; week 4, 30 mg/kg/day oral): 50%; Total deaths ([3]; week 4, 30 mg/kg/day oral): 0%; Mean tumor size (mean ± SE) ([3]; week 5, 30 mg/kg/day oral): 0.28 ± 0.08^a cm^2; Prevalence of tumor ([3]; week 5, 30 mg/kg/day oral): 58%; Total deaths ([3]; week 5, 30 mg/kg/day oral): 0%; Mean tumor size (mean ± SE) ([3]; week 6, 30 mg/kg/day oral): 0.32 ± 0.10^a cm^2; Prevalence of tumor ([3]; week 6, 30 mg/kg/day oral): 58%; Total deaths ([3]; week 6, 30 mg/kg/day oral): 0%; Mean tumor size (mean ± SE) ([3]; week 7, 30 mg/kg/day oral): 0.38 ± 0.12^a cm^2; Prevalence of tumor ([3]; week 7, 30 mg/kg/day oral): 58%; Total deaths ([3]; week 7, 30 mg/kg/day oral): 0%; Mean tumor size (mean ± SE) ([3]; week 8, 30 mg/kg/day oral): 0.45 ± 0.14^a cm^2; Prevalence of tumor ([3]; week 8, 30 mg/kg/day oral): 58%; Total deaths ([3]; week 8, 30 mg/kg/day oral): 0%; Mean tumor size (mean ± SE) ([3]; week 9, 30 mg/kg/day oral): 0.50 ± 0.15^a cm^2; Prevalence of tumor ([3]; week 9, 30 mg/kg/day oral): 54%; Total deaths ([3]; week 9, 30 mg/kg/day oral): 0%; Mean tumor size (mean ± SE) ([3]; week 10, 30 mg/kg/day oral): 0.59 ± 0.18^a cm^2; Prevalence of tumor ([3]; week 10, 30 mg/kg/day oral): 54%; Total deaths ([3]; week 10, 30 mg/kg/day oral): 0%; Mean tumor size (mean ± SE) ([3]; week 11, 30 mg/kg/day oral): 0.68 ± 0.21^a cm^2; Prevalence of tumor ([3]; week 11, 30 mg/kg/day oral): 54%; Total deaths ([3]; week 11, 30 mg/kg/day oral): 0%; Mean tumor size (mean ± SE) ([3]; week 12, 30 mg/kg/day oral): 0.81 ± 0.25 (n = 22) cm^2; Prevalence of tumor ([3]; week 12, 30 mg/kg/day oral): 54%; Total deaths ([3]; week 12, 30 mg/kg/day oral): 8.3%; tumor responses among the five patients ([4]; five patients of Table 3): two exhibited partial tumor responses, one has stable disease, and two showed tumor progression; dose above which toxicity begins to occur in humans ([4]; humans): 1 to 2 mg/kg/day; dose at which the anti-tumor effect occurs in humans ([4]; humans, approximately one tenth of dose effective in animals): ~1 mg/kg/day; side effects in treatment of human cancers ([4]; humans, compared to conventional therapies): mild fatigue, muscle tremor, dry mouth, dry skin, and occasional nausea; Response [4, 8]: Pro-; Side Effects [4, 8]: Xerostomia; also recorded: Nausea; also recorded: Trans-; Response [4, 9]: Pro-; Side Effects [4, 9]: Xerostomia; also recorded: Fatigue; Response [4, 10]: Stabili-; Side Effects [4, 10]: Xerostomia; also recorded: Fatigue; also recorded: Nausea; Response [4, 11]: Partial; Side Effects [4, 11]: Xerostomia; also recorded: Fatigue; also recorded: Nausea; side effects experienced during gossypol treatment ([4]; person, 20 to 50 mg/d oral): fatigue, xerostomia, tremor, and trasnminitis; clinical symptoms ([4]; person, after three weeks of treatment): improvement in abdominal pain, ascites, and pulmonary function; decrease in the size of the hepatic metastases on CT scans [4, 12]: > 50%; pulmonary metastases on CT scans [4, 12]: complete resolution; effect on proliferation of SW-13 cells [5]: inhibited cell proliferation; higher doses shown to be lethal [6]: 0.8 mg/mouse and 1.6 mg/mouse

Q: Which “tumor course under treatment” value [7] does the source give for Cc1ccc(C(=O)Nc2ccc(S(=O)(=O)O)c3cc(S(=O)(=O)O)cc(S(=O)(=O)O)c23)cc1NC(=O)c1cccc(NC(=O)Nc2cccc(C(=O)Nc3cc(C(=O)Nc4ccc(S(=O)(=O)O)c5cc(S(=O)(=O)O)cc(S(=O)(=O)O)c45)ccc3C)c2)c1 [Suramin] here?
A: The value was “progressed”.

— USRE40862E1, “Gossypolone for the treatment of cancer” (priority 1990, dated 2009)
